In the supplement of paper PMC11061612:

What was measured:
Assay in all cases: Bliss excess, mean over the matrix (fraction); higher = more synergy
[1] = tested on: SU-DHL-8 (B-Cell Non-Hodgkin's Lymphoma)
In short: (§1)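 After 24 hours at 37°C and 5% CO2 in 1536-well plates, cells in DMEM/F12 or RPMI plus 10% FBS received two-drug dose matrices for 72 hours. Viability came from CellTiter-Glo 2.0 luminescence and was scaled as inhibition, anchored at 0 by vehicle wells and at 1 by blank wells. Combination Emax is taken as the second-highest inhibition in the matrix, and Bliss excess as the observed combination effect less EA + EB − EA·EB, with EA and EB the single-agent effects.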

ES8 (Ewing's Sarcoma) = tested on: ES8 (Ewing's Sarcoma)
In short: as §1

[2] = tested on: MS751 (Cervical Carcinoma)
In short: as §1

[3] = tested on: MFM-223 (Breast Carcinoma)
In short: as §1

[4] = tested on: SR (Other Blood Carcinomas)
In short: as §1

[5] = tested on: NCI-H847 (Small Cell Lung Carcinoma)
In short: as §1

[6] = tested on: TE-6 (Esophageal Squamous Cell Carcinoma)
In short: as §1

[7] = tested on: L-540 (Hodgkin's Lymphoma)
In short: as §1

WM-115 (Melanoma) = tested on: WM-115 (Melanoma)
In short: as §1

ES1 (Ewing's Sarcoma) = tested on: ES1 (Ewing's Sarcoma)
In short: as §1

MEL-JUSO (Melanoma) = tested on: MEL-JUSO (Melanoma)
In short: as §1

[8] = tested on: HDQ-P1 (Breast Carcinoma)
In short: as §1

[9] = tested on: BL-41 (Burkitt's Lymphoma)
In short: as §1

[10] = tested on: DND-41 (T-Lymphoblastic Leukemia)
In short: as §1

[11] = tested on: KCL-22 (Chronic Myelogenous Leukemia)
In short: as §1

[12] = tested on: CAMA-1 (Breast Carcinoma)
In short: as §1

LN-18 (Glioblastoma) = tested on: LN-18 (Glioblastoma)
In short: as §1

U251 (Low Grade Glioma) = tested on: U251 (Low Grade Glioma)
In short: as §1

NCI-H2818 (Mesothelioma) = tested on: NCI-H2818 (Mesothelioma)
In short: as §1

[13] = tested on: SW837 (Colorectal Carcinoma)
In short: as §1

SMILES	Bliss excess [1]	Bliss excess (ES8 (Ewing's Sarcoma))	Bliss excess [2]	Bliss excess [3]	Bliss excess [4]	Bliss excess [5]	Bliss excess [6]	Bliss excess [7]	Bliss excess (WM-115 (Melanoma))	Bliss excess (ES1 (Ewing's Sarcoma))	Bliss excess (MEL-JUSO (Melanoma))	Bliss excess [8]	Bliss excess [9]	Bliss excess [10]	Bliss excess [11]	Bliss excess [12]	Bliss excess (LN-18 (Glioblastoma))	Bliss excess (U251 (Low Grade Glioma))	Bliss excess (NCI-H2818 (Mesothelioma))	Bliss excess [13]
COc1cccc(OCCCN)c1-c1cc(Nc2cnc(C#N)cn2)n[nH]1 [Prexasertib] + CCc1c2c(nc3ccc(O)cc13)-c1cc3c(c(=O)n1C2)COC(=O)[C@]3(O)CC [SN-38] (first compound max 1 µM, 7x7, partner max 0.3 µM)	-0.0171	-0.0301	0.0628	0.05	-0.0378	0.055	0.128	-0.0621	-0.0492	0.0085	-0.0378	0.0367	-0.0231	-0.103	0.0175	0.0573	0.07	0.0241	-0.0745	0.0546
CCN(CCO)CCCOc1ccc2c(Nc3cc(CC(=O)Nc4cccc(F)c4)[nH]n3)ncnc2c1 [AZD2811] + C=CCn1c(=O)c2cnc(Nc3ccc(N4CCN(C)CC4)cc3)nc2n1-c1cccc(C(C)(C)O)n1 [AZD1775] (first compound max 1 µM, partner max 1 µM)	0.0945	-0.0218	0.0461	0.0277	-0.0146	-0.0091	-0.0367	0.0772	-0.0562	0.16	0.0131	-0.0186	0.0862	0.0198	0.0162	-0.0328	0.0214	-0.0117	-0.0461	0.0033
CN(C)CCCOc1ccc(-c2ccc3ncc4c(c3c2)n(C2CCOCC2)c(=O)n4C)cn1 [AZD0156] + O=C(c1cc(Cc2n[nH]c(=O)c3ccccc23)ccc1F)N1CCN(C(=O)C2CC2)CC1 [Olaparib] (first compound max 3 µM, partner max 3 µM)	0.0543	0.39	-0.0033	-0.0186	0.194	0.227	0.0029	0.0746	0.0028	0.245	-0.0387	-0.0859	0.127	0.0867	0.157	0.0457	0.0366	0.0345	-0.0202	0.0159
C=CCn1c(=O)c2cnc(Nc3ccc(N4CCN(C)CC4)cc3)nc2n1-c1cccc(C(C)(C)O)n1 [AZD1775] + O=C(c1cc(Cc2n[nH]c(=O)c3ccccc23)ccc1F)N1CCN(C(=O)C2CC2)CC1 [Olaparib] (first compound max 1 µM, partner max 10 µM)	-0.0157	0.0059	-0.0021	-0.0421	0.0597	0.0627	-0.0297	-0.045	-0.0169	-0.0114	-0.0523	-0.0441	-0.0211	-0.0025	-0.0415	-0.0452	-0.037	-0.0154	0.0324	-0.0125
CC1(C)CCC(CN2CCN(c3ccc(C(=O)NS(=O)(=O)c4ccc(NCC5CCOCC5)c([N+](=O)[O-])c4)c(Oc4cnc5[nH]ccc5c4)c3)CC2)=C(c2ccc(Cl)cc2)C1 [Venetoclax] + C1CN(CCC1(C(=O)N[C@@H](CCO)C2=CC=C(C=C2)Cl)N)C3=NC=NC4=C3C=CN4 [Capivasertib] (first compound max 1 µM, 7x7, partner max 3 µM)	-0.0918	-0.0933	-0.0161	-0.0258	-0.0142	0.0062	0.0217	-0.0178	-0.0785	0.0278	-0.0436	-0.0234	-0.0058	0.0019	0.0015	-0.056	-0.0374	-0.0133	-0.0628	-0.0256
CN(CCO)CC[C@H](CSc1ccccc1)Nc1ccc(S(=O)(=O)NC(=O)c2ccc(N3CCC([C@@H](O)c4ccccc4-c4ccc(Cl)cc4)CC3)cc2)cc1S(=O)(=O)C(F)(F)F [AZD4320] + Cn1cnc2c(F)c(Nc3ccc(Br)cc3Cl)c(C(=O)NOCCO)cc21 [Selumetinib] (first compound max 1 µM, 7x7, partner max 3 µM)	-0.102	-0.0479	0.0636	-0.0146	0.0208	0.0247	-0.0277	-0.0184	0.102	0.0147	-0.0081	0.0877	0.039	-0.0181	0.0271	0.0043	0.031	-0.0087	-0.0136	-0.0184
Cc1c2c(nn1C)CSCc1cc(n(C)n1)CSc1cc(c3ccccc3c1)OCCCc1c(C(=O)O)n(C)c3c-2c(Cl)ccc13 [AZD5991] + C[C@@H]1COCCN1C2=NC(=NC(=C2)C3(CC3)[S@](=N)(=O)C)C4=C5C=CNC5=NC=C4 [AZD6738] (first compound max 1 µM, 7x7, partner max 10 µM)	0.0814	0.0029	0.0565	0.0601	0.0941	0.0145	0.0298	0.0278	0.0041	0.0292	0.0406	0.0563	-0.0045	0.0215	-0.0163	0.0332	0.037	0.0572	0.0148	0.0152
COc1cccc(OCCCN)c1-c1cc(Nc2cnc(C#N)cn2)n[nH]1 [Prexasertib] + O=C(c1cc(Cc2n[nH]c(=O)c3ccccc23)ccc1F)N1CCN(C(=O)C2CC2)CC1 [Olaparib] (first compound max 1 µM, 7x7, partner max 10 µM)	-0.0668	-0.066	0.034	-0.124	0.0119	-0.0027	-0.0452	-0.0351	-0.0557	-0.0161	-0.0741	0.0002	-0.0346	-0.101	-0.0599	-0.188	-0.0368	0.0369	-0.0136	-0.0854
CC1(C)CCC(CN2CCN(c3ccc(C(=O)NS(=O)(=O)c4ccc(NCC5CCOCC5)c([N+](=O)[O-])c4)c(Oc4cnc5[nH]ccc5c4)c3)CC2)=C(c2ccc(Cl)cc2)C1 [Venetoclax] + COc1cc(Nc2ncc3c(n2)-c2ccc(Cl)cc2C(c2c(F)cccc2OC)=NC3)ccc1C(=O)O [Alisertib] (first compound max 1 µM, 7x7, partner max 10 µM)	-0.0869	-0.104	0.0342	-0.0077	0.013	0.0304	0.0047	0.161	-0.0539	0.0385	-0.0463	-0.0185	-0.0436	0.116	0.163	-0.0072	0.0481	0.0027	-0.0547	-0.0319
CN(C)CCCOc1ccc(-c2ccc3ncc4c(c3c2)n(C2CCOCC2)c(=O)n4C)cn1 [AZD0156] + CCN(CCO)CCCOc1ccc2c(Nc3cc(CC(=O)Nc4cccc(F)c4)[nH]n3)ncnc2c1 [AZD2811] (first compound max 1 µM, 7x7, partner max 1 µM)	0.0377	-0.0153	-0.0235	0.0113	-0.0666	-0.0122	0.0127	0.0074	-0.0368	0.148	-0.0039	-0.0634	0.0177	0.0072	0.0703	-0.0318	0.0009	0.0131	-0.0491	-0.0263
Cc1cc2ncnn2cc1Nc1ncc2c(n1)n(C1CCOCC1)c(=O)n2C [AZD7648] + O=C(c1cc(Cc2n[nH]c(=O)c3ccccc23)ccc1F)N1CCN(C(=O)C2CC2)CC1 [Olaparib] (first compound max 10 µM, 7x7, partner max 10 µM)	0.0195	-0.0626	0.0017	-0.0131	0.0433	-0.0071	-0.0419	-0.0352	-0.0391	-0.0604	-0.0264	0.0133	-0.0368	0.0069	-0.0367	-0.054	-0.0351	0.0043	-0.0776	-0.0246
COc1cccc2c1C(=O)c1c(O)c3c(c(O)c1C2=O)C[C@@](O)(C(=O)CO)C[C@@H]3O[C@H]1C[C@H](N)[C@H](O)[C@H](C)O1 [Doxorubicin] + Cc1cc2ncnn2cc1Nc1ncc2c(n1)n(C1CCOCC1)c(=O)n2C [AZD7648] (first compound max 1 µM, 7x7, partner max 10 µM)	0.0145	0.125	0.135	0.0261	0.0651	0.124	-0.0541	0.0793	-0.0234	0.119	0.0309	0.0561	0.0714	0.115	0.086	0.0266	0.0386	0.0913	-0.0019	0.0068
